Read-outs that look alike come from different tables or passages of the source. Non-standard residues stand in square brackets, D forms with d. Residues, ends and D or L forms follow the SMILES beside them. Cit = NC(=O)NCCC[C@H](N)C(=O)O
Assay: pKa, pI and charge distribution of buffers
Conditions: for % salt: fraction of dipeptide carrying a net charge in aqueous solution at pH equal to pI
Text: At the pI, three species coexist.
In an electric field these negative species move in the opposite direction of their positive associated counterions.
Choice of the dipeptide buffer will be on a case-by-case basis depending on the drug compound and the desired level of pH control and conductivity of the formulation.

| Molecule | pka A | pI (Table 2) | % salt | pka B | pI | species presenting a net charge (salt form) at the pI (at pI) |
| --- | --- | --- | --- | --- | --- | --- |
| CSCC[C@H](N)C(=O)N[C@@H](Cc1cnc[nH]1)C(=O)O [Met-His] (H-Met-His-OH) | 2.42 | 7.35 | 30% | – | – | – |
| NC(N)=NCCC[C@H](N)C(=O)N[C@@H](CC(=O)O)C(=O)O [Arg-Asp] (H-Arg-Asp-OH) | – | 6.08 | 2% | – | – | – |
| NC(=O)C[C@H](NC(=O)[C@@H](N)Cc1cnc[nH]1)C(=O)O [His-Asn] (H-His-Asn-OH) | 2.62 | 6.95 | 22% | – | – | – |
| NC(N)=NCCC[C@H](N)C(=O)N[C@@H](CCC(=O)O)C(=O)O [Arg-Glu] (H-Arg-Glu-OH) | – | 6.06 | 3% | – | – | – |
| C[C@@H](O)[C@H](NC(=O)[C@@H](N)Cc1cnc[nH]1)C(=O)O [His-Thr] (H-His-Thr-OH) | 2.98 | 6.95 | 22% | – | – | – |
| N[C@@H](CC(=O)O)C(=O)N[C@@H](CC(=O)O)C(=O)O [Asp-Asp] (H-Asp-Asp-OH) | – | 3.05 | 43% | 8.26 | – | – |
| N[C@@H](Cc1c[nH]c2ccccc12)C(=O)N[C@@H](Cc1cnc[nH]1)C(=O)O [Trp-His] (H-Trp-His-OH) | 2.42 | 7.30 | 32% | – | – | – |
| Cn1cncc1C[C@H](NC(=O)CCN)C(=O)O [Anserine] | 2.64 | 8.27 | 10% | – | – | – |
| NCC(=O)N[C@@H](CC(=O)O)C(=O)O [Gly-Asp] (H-Gly-Asp-OH) | – | 3.60 | 23% | 8.60 | – | – |
| NC(=O)NCCC[C@H](N)C(=O)N[C@@H](Cc1c[nH]cn1)C(=O)O [Citrulline-His] (H-[Cit]-His-OH) | 2.42 | 7.30 | 32% | – | – | – |
| NCCC(=O)N[C@@H](Cc1c[nH]cn1)C(=O)O [Beta-Alanylhistidine] | – | 7.70 | 16% | – | – | – |
| CC[C@H](C)[C@H](NC(=O)[C@@H](N)Cc1cnc[nH]1)C(=O)O [His-Isoleucine] (H-His-Ile-OH) | 3.13 | 6.95 | 22% | – | – | – |
| C[C@@H](O)[C@H](N)C(=O)N[C@@H](Cc1cnc[nH]1)C(=O)O [Thr-His] (H-Thr-His-OH) | 2.42 | 7.15 | 39% | – | – | – |
| CC(C)C[C@H](N)C(=O)N[C@@H](Cc1cnc[nH]1)C(=O)O [Leu-His] (H-Leu-His-OH) | 2.42 | 7.50 | 24% | – | – | – |
| N[C@@H](CO)C(=O)N[C@@H](Cc1cnc[nH]1)C(=O)O [Ser-His] (H-Ser-His-OH) | 2.42 | 7.20 | 36% | – | – | – |
| N[C@@H](Cc1c[nH]cn1)C(=O)N1CC(O)C[C@H]1C(=O)O (stereo partly shown) [His-Hydroxyproline] | 2.42 | 6.95 | 22% | – | – | – |
| His-Gly-Gly-Gly (HGGG; printed: His-Gly-Gly-Gly) | – | – | – | – | 6.9 | – |
| His-Gly-Gly | – | – | – | – | 6.9 | – |

| Molecule | pka A | pI (Table 2) | % salt | pka B | pI | species presenting a net charge (salt form) at the pI (at pI) |
| --- | --- | --- | --- | --- | --- | --- |
| Gly-Gly-Gly-Gly-His (GGGGH; printed: Gly-Gly-Gly-Gly-His) | – | – | – | – | 7.55 | – |
| N[C@@H](Cc1cnc[nH]1)C(=O)N[C@@H](Cc1c[nH]c2ccccc12)C(=O)O [His-Trp] | 3.07 | 6.95 | 22% | – | – | – |
| NC(=O)CC[C@H](N)C(=O)N[C@@H](Cc1cnc[nH]1)C(=O)O [GIn-His] (H-Gln-His-OH) | 2.42 | 7.20 | 36% | – | – | – |
| NCCCC[C@H](N)C(=O)N[C@@H](Cc1cnc[nH]1)C(=O)O [Lys-His] | 2.42 | 9.50 | 5% | – | – | – |
| N[C@@H](Cc1ccccc1)C(=O)N[C@@H](Cc1cnc[nH]1)C(=O)O [Phe-His] (H-Phe-His-OH) | 2.42 | 7.20 | 36% | – | – | – |
| NC(=O)NCCC[C@H](NC(=O)[C@@H](N)Cc1c[nH]cn1)C(=O)O [His-Citrulline] (H-His-[Cit]-OH) | 3.05 | 6.95 | 22% | – | – | – |
| N[C@@H](CCC(=O)O)C(=O)N[C@@H](Cc1cnc[nH]1)C(=O)O [Glu-His] (H-Glu-His-OH) | – | 5.20 | 5% | – | 5.2 | about 5% |
| His-Gly-Gly-Gly-Gly (HGGGG; printed: His-Gly-Gly-Gly-Gly) | – | – | – | – | 6.0 | – |
| NC(=O)C[C@H](N)C(=O)N[C@@H](Cc1cnc[nH]1)C(=O)O [Asn-His] (H-Asn-His-OH) | 2.42 | 7.00 | 44% | – | – | – |
| CSCC[C@H](NC(=O)[C@@H](N)Cc1cnc[nH]1)C(=O)O [His-Met] (H-His-Met-OH) | 2.89 | 6.95 | 22% | – | – | – |
| NC(N)=NCCC[C@H](NC(=O)[C@@H](N)CCC(=O)O)C(=O)O [Glu-Arg] (H-Glu-Arg-OH) | – | 6.00 | 2% | – | – | – |
| O=C(O)[C@H](Cc1c[nH]cn1)NC(=O)[C@@H]1CC(O)CN1 (stereo partly shown) [Hydroxyproline-His] | 2.42 | 7.45 | 25% | – | – | – |
| Gly-Gly-His | – | – | – | – | 7.5 | – |
| NCC(O)CC[C@H](NC(=O)[C@@H](N)Cc1c[nH]cn1)C(=O)O (stereo partly shown) [His-Hydroxylysine] | 3.05 | 8.75 | 17% | – | – | – |
| NC(N)=NCCC[C@H](NC(=O)[C@@H](N)Cc1ccc(O)cc1)C(=O)O [Tyr-Arg] | – | 8.40 | 17% | – | – | – |
| N[C@@H](Cc1cnc[nH]1)C(=O)N1CCC[C@H]1C(=O)O [His-Pro] | 2.62 | 6.95 | 22% | – | – | – |
| N[C@@H](Cc1cnc[nH]1)C(=O)N[C@@H](CO)C(=O)O [His-Ser] (H-His-Ser-OH) | 2.65 | 6.95 | 22% | – | – | – |
| NC[C@H](O)CC[C@H](N)C(=O)N[C@@H](Cc1c[nH]cn1)C(=O)O [Hydroxylysine-His] | 2.42 | 8.60 | 13% | – | – | – |

Reference: patent US20070078096A1, “Buffered drug formulations for transdermal electrotransport delivery” (priority 1997, published 2007)
